Measurements published in article PMC9587079, “Bioavailability of inhaled or ingested PFOA adsorbed to house dust” (Environmental Science and Pollution Research International, 2022).
“Also recorded” adds a separate entry of the source. Like-named read-outs stand apart in the source and are kept apart here.

How the values were obtained:
[1] = PFOA in plasma over time after inhalation or gavage of PFOA-coated house dust; format: in vivo, rat; details: for Cmax: male, RccHan:WIST, rat, plasma
[2] = PFOA in terminal plasma, lung lavage and tissues 48 h after dust exposure; format: in vivo, rat; details: for Kp at 48 h / concentration at 48 h: male, RccHan:WIST, rat
[3] = Vapor concentration of PFOA at outlet of vapor generation chamber; format: physicochemical; details: room temperature, after 24 h
Protocol: The gas phase of PFOA was collected with OSHA Versatile Sampling (OVS) tubes with XAD-2 resin (SKC). Samples were collected at a flowrate of 0.04 L/min using vacuum sampling pumps. Collection times were set for 5 min typically for a 200 mL air sample. PFOA from the OVS sampler was extracted prior to analysis into two fractions with each fraction placed into individual PP tubes. Fraction A consisted of the glass or quartz fiber filter and first section of XAD resin beads and the first polyurethane foam (PUF) filter. Fraction B consisted of the second section of XAD resin beads and the back PUF filter. All samples were spiked with 50 μL of 1 μg/mL C13 solution, the surrogate standard. Each section was placed in PP tube to which 5 mL of HPLC-grade methanol was added. The tube was shaken for 60 min on a mechanical flatbed shaker set at ∼2 cycles per second. Approximately 4.5 mL of each extract was transferred to a pre-baked amber glass vial by filtering through a Gelman GHP Acrodisc (Pall Gelman Laboratory, Ann Arbor, MI, USA.). Each extract of consisting of 200 μL was transferred to an autosampler vial with PP insert. […]
The vapor concentration of PFOA (Cpfoa) measured at the outlet of the vapor pressure generation chamber is described in detail in Supplementary Information and shown in Fig. S1. […]

[4] = Sorption of PFOA on house dust in near saturated vapor; format: physicochemical; details: more than 3 weeks
Protocol: To achieve a sufficient concentration of PFOA on the house dust, a saturated vapor concentration procedure was created to adsorb/absorb PFOA on the house dust. This was done to ensure detectability in the tissue samples. Ten grams of solid pure perfluorooctanoic acid was placed in a glass jar bottle, capped with a lid, shaken and stored at room temperature (25 ± 0.1 °C) to allow vaporization and pre-equilibration of PFOA on the walls of the glass jars. Following equilibration of PFOA in the air and on walls of jars, a portion of 5 ± 0.03 g dust was placed in a polypropylene (PP) round plate inside each of four jars. These were capped and kept under the controlled room temperature and atmospheric pressure over time, mimicking a residential indoor environment, but with a saturated vapor of PFOA. Repeated samples of dust were withdrawn from the jars over time and analyzed for the PFOA content. This procedure was repeated over time for up to 6 weeks until a stable equilibrium concentration of PFOA was attained adsorbed to the dust. […]
During the adsorption process, the concentration of PFOA adsorbed to the dust was periodically measured after a rotatory mixing of dust samples with a tube rotator or 24 h prior to the extraction procedures and instrumental analysis. […]

[5] = design: method as in Hinderliter et al. [2006]; details: ref Hinderliter et al. [2006], cited from earlier work
[6] = cited from earlier work
[7] = design: method as in Li et al. [2017]; details: humans, calculated; ref Li et al. [2017]; cited from earlier work
[8] = design: method as in Li et al. [2017]; details: rats; ref Li et al. [2017]; cited from earlier work
albumin in serum = system: albumin in serum; design: method as in Han et al. [2003]; details: ref Han et al. [2003]; cited from earlier work

Structure (SMILES): O=C(O)C(F)(F)C(F)(F)C(F)(F)C(F)(F)C(F)(F)C(F)(F)C(F)(F)F [PFOA, Perfluorooctanoic acid]
- Cmax ([1]; inhaled or intranasal, inhalation group, n = 4, 164 μg PFOA/kg BW): 3100 ± 320 ng/mL
- Cmax ([1]; oral gavage group, n = 4, 364 μg PFOA/kg BW): 1730 ± 170 ng/mL
- Time of Cmax post exposure ([1]; oral gavage group): 3 h
- Plasma PFOA (Cmax, 3 h) following inhalation compared to oral exposure ([1]; same deposition level of exposure): almost four times higher; also recorded: approximately four times higher
- Liver:plasma ratio of PFOA concentration ([2]; 48 h, inhalation): 5.28 ± 1.3
- Kidney:plasma ratio of PFOA concentration ([2]; 48 h, oral gavage): 1.72 ± 0.3
- Liver:plasma ratio of PFOA concentration ([2]; 48 h, oral gavage): 4.89 ± 1.0
- Levels of PFOA in plasma, liver and kidney, inhalation compared to oral ([2]; 48 h post exposure): twice as high
- PFOA concentration ([2]; kidney, 48 h, inhalation): 3.84 ± 0.8 µg/g
- PFOA concentration ([2]; kidney, 48 h, oral gavage): 3.15 ± 0.2 µg/g
- PFOA concentration ([2]; liver, 48 h, inhalation): 10.1 ± 0.9 µg/g
- PFOA concentration ([2]; liver, 48 h, oral gavage): 8.94 ± 0.5 µg/g
- PFOA concentration ([2]; lung, 48 h, inhalation): 31.3 ± 4.0 µg/g
- PFOA concentration ([2]; lung, 48 h, oral gavage): 1.68 ± 0.3 µg/g
- Kp at 48 h ([2]; kidney, 364 μg PFOA/kg BW, 48 h, oral gavage, read-out: Kidney:plasma ratio of PFOA concentration): 1.72
- concentration at 48 h ([2]; kidney, inhaled, 164 μg PFOA/kg BW, kidney, 48 h, inhalation): 3840 ± 760 ng/g
- Kp at 48 h ([2]; kidney, inhaled, 164 μg PFOA/kg BW, 48 h, inhalation, read-out: Kidney:plasma ratio of PFOA concentration): 2.02 ± 0.7
- concentration at 48 h ([2]; kidney, po, 364 μg PFOA/kg BW, kidney, 48 h, oral gavage): 3150 ± 190 ng/g
- Kp at 48 h ([2]; liver, 364 μg PFOA/kg BW, 48 h, oral gavage, read-out: Liver:plasma ratio of PFOA concentration): 4.89
- concentration at 48 h ([2]; liver, inhaled, 164 μg PFOA/kg BW, liver, 48 h, inhalation): 10100 ± 880 ng/g
- Kp at 48 h ([2]; liver, inhaled, 164 μg PFOA/kg BW, 48 h, inhalation, read-out: Liver:plasma ratio of PFOA concentration): 5.28
- concentration at 48 h ([2]; liver, po, 364 μg PFOA/kg BW, liver, 48 h, oral gavage): 8940 ± 500 ng/g
- concentration at 48 h ([2]; lung lavage (BALF), inhaled, 164 μg PFOA/kg BW, lung lavage, 48 h, inhalation): 9980 ± 630 ng/mL
- concentration at 48 h ([2]; lung lavage (BALF), po, 364 μg PFOA/kg BW, lung lavage, 48 h, oral gavage): 310 ± 20 ng/mL
- concentration at 48 h ([2]; lung, inhaled, 164 μg PFOA/kg BW, lung, 48 h, inhalation): 31300 ± 4000 ng/g
- concentration at 48 h ([2]; lung, po, 364 μg PFOA/kg BW, lung, 48 h, oral gavage): 1680 ± 310 ng/g
- concentration at 48 h ([2]; plasma, inhaled, 164 μg PFOA/kg BW, terminal plasma, 48 h, inhalation of PFOA-coated dust (164 μg PFOA/kg BW)): 2030 ± 320 ng/mL
- concentration at 48 h ([2]; plasma, po, 364 μg PFOA/kg BW, terminal plasma, 48 h, oral gavage of PFOA-coated dust (364 μg PFOA/kg BW)): 1870 ± 350 ng/mL
- Distribution of PFOA to liver and kidney, inhalation compared to oral gavage ([2]; post exposure): ~2.5 times
- PFOA concentration ([2]; terminal plasma, 48 h, inhalation of PFOA-coated dust (164 μg PFOA/kg BW)): 1.97 ± 0.32 ng/µL
- Stable (saturation) vapor concentration of PFOA [3]: 1.37e-05 µg/L
- Steady state concentration of PFOA on house dust [4]: 0.335 g/g coated dust
- Concentration of PFOA in plasma ([5]; 6-h inhalation exposure, 1–25 mg/m^3 aerosolized solution): 1000 to 25000 ng/mL
- Plasma level in male compared to females ([5]; end of the 6-h exposure time): almost twice as high
- Absorption over the gastrointestinal tract ([6]; oral exposure in animal studies, ammonium salt: APFO, ref DeWitt. [2015]): virtually all of it was absorbed
- Delivered dose absorbed over the gastro intestinal ([6]; oral exposure, ref US EPA [2016], Pizzurro et al. [2019], DeWitt. [2015]): more than 90%
- Half-time [7]: 2.3–8.5 years
- Half-time [8]: a few days
- PFOA bound to albumin in serum (albumin in serum): more than 90%
